Laboratory results: ChEMBL document CHEMBL3045723, “Synthesis of novel 3-(5-sulfanyl-1,3,4-oxadiazol-2-yl)-2H-chromen-2-one condensed s-triazinyl piperazines and piperidines as antimicrobial agents” (2012)
In brackets after ≈: the same amount, converted by molar mass.

What was measured:
Type in all cases: functional
[1] = test system: Candida albicans; assay: Antifungal activity against Candida albicans MTCC 183 after 48 hr; details: MTCC 183, 48 h
[2] = test system: Aspergillus niger; assay: Antifungal activity against Aspergillus niger MTCC 282 after 48 hr; details: MTCC 282, 48 h
[3] = test system: Candida albicans; assay: Antifungal activity against Candida albicans MTCC 183 after 24 hr by agar disk diffusion test
[4] = test system: Aspergillus niger; assay: Antifungal activity against Aspergillus niger MTCC 282 after 24 hr by agar disk diffusion test
[5] = test system: Shigella flexneri; assay: Antibacterial activity against Shigella flexneri after 24 hr
[6] = test system: Proteus vulgaris; assay: Antibacterial activity against Proteus vulgaris MTCC 1771 after 24 hr; details: MTCC 1771, 24 h
[7] = test system: Salmonella typhi; assay: Antibacterial activity against Salmonella enterica subsp. enterica serovar Typhi MTCC 733 after 24 hr; details: MTCC 733, 24 h
[8] = test system: Shigella flexneri; assay: Antibacterial activity against Shigella flexneri after 24 hr by agar disk diffusion test
[9] = test system: Proteus vulgaris; assay: Antibacterial activity against Proteus vulgaris MTCC 1771 after 24 hr by agar disk diffusion test
[10] = test system: Salmonella typhi; assay: Antibacterial activity against Salmonella enterica subsp. enterica serovar Typhi MTCC 733 after 24 hr by agar disk diffusion test
[11] = test system: Klebsiella pneumoniae; assay: Antibacterial activity against Klebsiella pneumoniae MTCC 109 after 24 hr by agar disk diffusion test
[12] = test system: Pseudomonas aeruginosa; assay: Antibacterial activity against Pseudomonas aeruginosa MTCC 741 after 24 hr by agar disk diffusion test
[13] = test system: Escherichia coli; assay: Antibacterial activity against Escherichia coli MTCC 739 after 24 hr by agar disk diffusion test
[14] = test system: Bacillus cereus; assay: Antibacterial activity against Bacillus cereus MTCC 619 after 24 hr by agar disk diffusion test
[15] = test system: Staphylococcus aureus; assay: Antibacterial activity against Staphylococcus aureus MTCC 96 after 24 hr by agar disk diffusion test
[16] = test system: Klebsiella pneumoniae; assay: Antibacterial activity against Klebsiella pneumoniae MTCC 109 after 24 hr; details: MTCC 109, 24 h
[17] = test system: Pseudomonas aeruginosa; assay: Antibacterial activity against Pseudomonas aeruginosa MTCC 741
[18] = test system: Escherichia coli; assay: Antibacterial activity against Escherichia coli MTCC 739 after 24 hr; details: MTCC 739, 24 h
[19] = test system: Bacillus cereus; assay: Antibacterial activity against Bacillus cereus MTCC 619 after 24 hr; details: MTCC 619, 24 h
[20] = test system: Staphylococcus aureus; assay: Antibacterial activity against Staphylococcus aureus MTCC 96 after 24 hr; details: MTCC 96, 24 h

Row | SMILES | MIC [1] | MIC [2] | inhibition zone (IZ) [3] | inhibition zone (IZ) [4] | MIC [5] | MIC [6] | MIC [7] | inhibition zone (IZ) [8] | inhibition zone (IZ) [9] | inhibition zone (IZ) [10] | inhibition zone (IZ) [11] | inhibition zone (IZ) [12] | inhibition zone (IZ) [13] | inhibition zone (IZ) [14] | inhibition zone (IZ) [15] | MIC [16] | MIC [17] | MIC [18] | MIC [19] | MIC [20]
1 | O=c1oc2ccccc2cc1-c1nnc(Sc2nc(Oc3cccc4cccnc34)nc(N3CCCCC3)n2)o1 | 100 µg/mL (≈ 181 µM) | 100 µg/mL (≈ 181 µM) | <10 mm | <10 mm | 100 µg/mL (≈ 181 µM) | 100 µg/mL (≈ 181 µM) | 100 µg/mL (≈ 181 µM) | <10 mm | <10 mm | 14 mm | 20 mm | 15 mm | <10 mm | <10 mm | 11 mm | 50 µg/mL (≈ 90.6 µM) | 100 µg/mL (≈ 181 µM) | 100 µg/mL (≈ 181 µM) | 100 µg/mL (≈ 181 µM) | 100 µg/mL (≈ 181 µM)
2 | O=c1oc2ccccc2cc1-c1nnc(Sc2nc(Oc3cccc4cccnc34)nc(N3CCOCC3)n2)o1 | 100 µg/mL (≈ 181 µM) | 100 µg/mL (≈ 181 µM) | <10 mm | 12 mm | 100 µg/mL (≈ 181 µM) | 100 µg/mL (≈ 181 µM) | 100 µg/mL (≈ 181 µM) | 11 mm | <10 mm | 16 mm | 22 mm | 16 mm | <10 mm | 15 mm | 14 mm | 25 µg/mL (≈ 45.2 µM) | 100 µg/mL (≈ 181 µM) | 100 µg/mL (≈ 181 µM) | 100 µg/mL (≈ 181 µM) | 100 µg/mL (≈ 181 µM)
3 | O=c1oc2ccccc2cc1-c1nnc(Sc2nc(Oc3cccc4cccnc34)nc(N3CCN(c4ccccc4)CC3)n2)o1 | 100 µg/mL (≈ 159 µM) | 100 µg/mL (≈ 159 µM) | <10 mm | <10 mm | 100 µg/mL (≈ 159 µM) | 100 µg/mL (≈ 159 µM) | 100 µg/mL (≈ 159 µM) | <10 mm | 15 mm | <10 mm | 11 mm | 13 mm | <10 mm | 12 mm | <10 mm | 100 µg/mL (≈ 159 µM) | 100 µg/mL (≈ 159 µM) | 100 µg/mL (≈ 159 µM) | 100 µg/mL (≈ 159 µM) | 100 µg/mL (≈ 159 µM)
4 | CC(=O)N1CCN(c2nc(Oc3cccc4cccnc34)nc(Sc3nnc(-c4cc5ccccc5oc4=O)o3)n2)CC1 | 100 µg/mL (≈ 168 µM) | 100 µg/mL (≈ 168 µM) | 13 mm | 16 mm | 25 µg/mL (≈ 42 µM) | 100 µg/mL (≈ 168 µM) | 12.5 µg/mL (≈ 21 µM) | 23 mm | 18 mm | 22 mm | 13 mm | 23 mm | 15 mm | 22 mm | 20 mm | 100 µg/mL (≈ 168 µM) | 12.5 µg/mL (≈ 21 µM) | 100 µg/mL (≈ 168 µM) | 25 µg/mL (≈ 42 µM) | 50 µg/mL (≈ 84.1 µM)
5 | CC(C)N1CCN(c2nc(Oc3cccc4cccnc34)nc(Sc3nnc(-c4cc5ccccc5oc4=O)o3)n2)CC1 | 100 µg/mL (≈ 168 µM) | 100 µg/mL (≈ 168 µM) | 11 mm | 12 mm | 25 µg/mL (≈ 42 µM) | 100 µg/mL (≈ 168 µM) | 50 µg/mL (≈ 84.1 µM) | 24 mm | 15 mm | 20 mm | 14 mm | 21 mm | 16 mm | 16 mm | 19 mm | 100 µg/mL (≈ 168 µM) | 25 µg/mL (≈ 42 µM) | 100 µg/mL (≈ 168 µM) | 100 µg/mL (≈ 168 µM) | 100 µg/mL (≈ 168 µM)
